According to US10414769B2, “5,8-dimethyl-9-phenyl-5,8-dihydro-6H-pyrazolo[3,4-h]quinazolin-2-yl)-(1H-pyrazol-3-yl)-amines as IGF-1R/IR inhibitors” (Boehringer Ingelheim International GmbH, priority 2015, dated 2019):

Tests used:
Type in all cases: biochemical
CHEK1 (CHK1) = target: T1, CHEK1 (CHK1) (Homo sapiens, UniProt O14757); test: Z'-LYTE kinase selectivity assay CHEK1
T1 construct: purchased Life Technologies P 3040
T1 sequence (O14757 1-476): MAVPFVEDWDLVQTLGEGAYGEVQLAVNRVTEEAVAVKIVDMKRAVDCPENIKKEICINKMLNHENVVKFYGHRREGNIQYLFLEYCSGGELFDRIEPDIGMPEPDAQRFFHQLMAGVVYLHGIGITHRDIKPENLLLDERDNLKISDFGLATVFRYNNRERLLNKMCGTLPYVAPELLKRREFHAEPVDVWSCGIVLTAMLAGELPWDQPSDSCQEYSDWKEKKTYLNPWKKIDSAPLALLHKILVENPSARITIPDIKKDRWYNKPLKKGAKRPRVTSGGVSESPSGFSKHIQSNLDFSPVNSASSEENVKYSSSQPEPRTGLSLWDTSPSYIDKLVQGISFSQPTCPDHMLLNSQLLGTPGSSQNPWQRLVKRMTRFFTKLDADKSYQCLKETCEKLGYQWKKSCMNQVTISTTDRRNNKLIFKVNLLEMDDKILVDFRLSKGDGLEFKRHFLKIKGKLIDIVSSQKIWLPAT
Excerpt: (§1) In order to compare the kinase selectivity of compounds (I) according to the invention with known prior art compounds the commercially provided SelectScreen® Kinase Profiling Service (Z′-LYTE®) was used (Life Technologies GmbH, Darmstadt, Germany) to investigate the ability of the compounds to inhibit a number of different, representatively selected human kinases. Further details regarding this service are available on the Life Technologies website at
(§2) The Z′-LYTE® biochemical assay employs a fluorescence-based, coupled-enzyme format and is based on the differential sensitivity of phosphorylated and non-phosphorylated peptides to proteolytic cleavage. The peptide substrate is labeled with two fluorophores—one at each end—that make up a FRET pair.
(§3) In the primary reaction, the kinase transfers the gamma-phosphate of ATP to a single tyrosine, serine or threonine residue in a synthetic FRET-peptide. In the secondary reaction, a site-specific protease recognizes and cleaves non-phosphorylated FRET-peptides. Phosphorylation of FRET-peptides suppresses cleavage by the Development Reagent. Cleavage disrupts FRET between the donor (i.e., coumarin) and acceptor (i.e., fluorescein) fluorophores on the FRET-peptide, whereas uncleaved, phosphorylated FRET-peptides maintain FRET. A ratiometric method, which calculates the ratio (the Emission Ratio) of donor emission to acceptor emission after excitation of the donor fluorophore at 400 nm, is used to quantitate reaction progress, as shown in the equation below.
(§4) The Test Compounds are screened at 1 μM.
The 2×CHEK1 (CHK1) (# P 3040)/Ser/Thr 19 (Z′-LYTE® Kinase Assay Kit—Ser/Thr 19 Peptide, # PV 4529) mixture is prepared in 50 mM HEPES pH 7.5, 0.01% BRIJ-35, 10 mM MgCl2, 1 mM EGTA. The final 10 μL Kinase Reaction consists of 2.04-35 ng CHEK1 (CHK1) and 2 μM Ser/Thr 19 in 50 mM HEPES pH 7.5, 0.01% BRIJ-35, 10 mM MgCl2. 1 mM EGTA. After the 1 hour Kinase Reaction incubation, 5 μL of a 1:256 dilution of Development Reagent A is added.

PRKACA (PKA) = target: T2, PRKACA (PKA) (Homo sapiens, UniProt P17612); test: Z'-LYTE kinase selectivity assay PRKACA
T2 construct: purchased Life Technologies P 2912
Excerpt: as §1, §2, §3, §4
The 2×PRKACA (PKA) (# P 2912)/Ser/Thr 01 (Z′-LYTE® Kinase Assay Kit—Ser/Thr 1 Peptide, # PV 3174) mixture is prepared in 50 mM HEPES pH 7.5, 0.01% BRIJ-35, 10 mM MgCl2, 1 mM EGTA. The final 10 μL Kinase Reaction consists of 0.03-0.15 ng PRKACA (PKA) and 2 μM Ser/Thr 01 in 50 mM HEPES pH 7.5, 0.01% BRIJ-35, 10 mM MgCl2, 1 mM EGTA. After the 1 hour Kinase Reaction incubation, 5 μL of a 1:4096 dilution of Development Reagent A is added.

PDK1 Direct = target: T3, PDK1 Direct (Homo sapiens, UniProt O15530); test: Z'-LYTE kinase selectivity assay PDK1
T3 sequence (O15530 1-556): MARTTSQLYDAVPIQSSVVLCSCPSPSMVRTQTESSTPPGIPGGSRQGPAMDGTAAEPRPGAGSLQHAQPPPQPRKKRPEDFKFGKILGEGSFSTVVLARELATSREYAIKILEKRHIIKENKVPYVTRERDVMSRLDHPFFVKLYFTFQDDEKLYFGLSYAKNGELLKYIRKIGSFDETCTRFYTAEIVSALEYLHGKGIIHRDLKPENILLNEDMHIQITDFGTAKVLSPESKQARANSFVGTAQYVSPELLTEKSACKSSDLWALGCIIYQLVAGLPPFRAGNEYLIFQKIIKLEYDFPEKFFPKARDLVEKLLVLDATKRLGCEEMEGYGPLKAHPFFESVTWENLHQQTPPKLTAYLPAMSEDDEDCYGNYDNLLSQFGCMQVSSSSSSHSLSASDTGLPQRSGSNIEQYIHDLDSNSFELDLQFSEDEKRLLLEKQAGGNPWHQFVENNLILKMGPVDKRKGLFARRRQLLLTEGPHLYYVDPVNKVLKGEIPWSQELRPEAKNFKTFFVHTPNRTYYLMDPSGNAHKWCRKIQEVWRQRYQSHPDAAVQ
Excerpt: as §1, §2, §3, §4
The 2×PDK1 Direct/Ser/Thr 07 (Z′-LYTE® Kinase Assay Kit—Ser/Thr 7 Peptide, # PV 3180) mixture is prepared in 50 mM Tris pH 8.5, 0.01% BRIJ-35, 10 mM MgCl2, 1 mM EGTA, 0.02% NaN3. The final 10 μL Kinase Reaction consists of 5.04-29.4 ng PDK1 Direct and 2 μM Ser/Thr 07 in 50 mM Tris/HEPES pH 8.0, 0.01% BRIJ-35, 10 mM MgCl2, 1 mM EGTA, 0.01% NaN3. After the 1 hour Kinase Reaction incubation, 5 μL of a 1:65000 dilution of Development Reagent A is added.

MAPK8 (JNK1) = target: T4, MAPK8 (JNK1) (Homo sapiens, UniProt P45983); test: Z'-LYTE kinase selectivity assay MAPK8
T4 construct: purchased Life Technologies PV 3593
Excerpt: as §1, §2
as §3, with “Cleavage disrupts FRET between the donor (i.e., coumarin) and acceptor (i.e., fluorescein) fluorophores on the FRET-peptide, whereas uncleaved, phosphorylated FRET-peptides maintain FRET.” left out, “below. […]” for “below.”

MAPK9 (JNK2) = target: T5, MAPK9 (JNK2) (Homo sapiens, UniProt P45984); test: Z'-LYTE kinase selectivity assay MAPK9
T5 construct: purchased Life Technologies PV 4018
Excerpt: as §1, §2
as §3, with “Cleavage disrupts FRET between the donor (i.e., coumarin) and acceptor (i.e., fluorescein) fluorophores on the FRET-peptide, whereas uncleaved, phosphorylated FRET-peptides maintain FRET.” left out, “below. […]” for “below.”

T4 sequence (P45983 whole entry): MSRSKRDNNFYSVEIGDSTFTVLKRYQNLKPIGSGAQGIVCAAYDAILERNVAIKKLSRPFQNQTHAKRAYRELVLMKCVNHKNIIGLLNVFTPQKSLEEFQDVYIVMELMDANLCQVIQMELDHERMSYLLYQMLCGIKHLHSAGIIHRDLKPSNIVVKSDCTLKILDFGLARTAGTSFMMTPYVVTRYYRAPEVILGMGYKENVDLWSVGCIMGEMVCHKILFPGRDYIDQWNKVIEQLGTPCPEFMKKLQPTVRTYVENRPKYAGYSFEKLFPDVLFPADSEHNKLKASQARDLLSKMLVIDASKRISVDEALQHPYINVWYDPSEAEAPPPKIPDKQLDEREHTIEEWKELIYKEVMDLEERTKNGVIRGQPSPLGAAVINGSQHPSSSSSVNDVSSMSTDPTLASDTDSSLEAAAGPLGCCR
T5 sequence (P45984 whole entry): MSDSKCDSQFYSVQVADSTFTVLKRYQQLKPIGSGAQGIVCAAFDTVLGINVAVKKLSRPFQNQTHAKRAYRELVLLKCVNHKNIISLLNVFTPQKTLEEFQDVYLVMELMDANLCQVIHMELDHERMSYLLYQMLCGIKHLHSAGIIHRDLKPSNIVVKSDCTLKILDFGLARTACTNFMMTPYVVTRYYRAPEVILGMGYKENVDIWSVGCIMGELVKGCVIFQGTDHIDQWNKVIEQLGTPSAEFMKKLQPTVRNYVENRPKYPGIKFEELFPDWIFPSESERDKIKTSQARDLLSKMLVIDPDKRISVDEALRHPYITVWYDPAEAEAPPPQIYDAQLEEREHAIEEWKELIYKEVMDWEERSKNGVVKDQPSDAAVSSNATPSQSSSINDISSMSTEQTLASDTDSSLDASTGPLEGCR

`C[C@@H]1Cc2nn(C)c(-c3ccccc3)c2-c2nc(Nc3ccn(CCN4CCN(C)CC4)n3)ncc21` [Compound I-1] was tested. Which inhibition at 1 µM (CHEK1 (CHK1)) did it give?
Its inhibition at 1 µM is 11%.

And the inhibition at 1 µM (PRKACA (PKA))?
The inhibition at 1 µM was -5%.

What about the inhibition at 1 µM (PDK1 Direct) of the same molecule?
Its inhibition at 1 µM is -2%.

With `C[C@@H]1Cc2nn(C)c(-c3ccccc3)c2-c2nc(Nc3ccn(CCN4CCOCC4)n3)ncc21` [Compound I-2] as the molecule, how does the inhibition at 1 µM (CHEK1 (CHK1)) read?
The inhibition at 1 µM was 23%.

And the inhibition at 1 µM (PRKACA (PKA))?
Its inhibition at 1 µM is 22%.

And the inhibition at 1 µM (PDK1 Direct)?
Its inhibition at 1 µM is 1%.

With `C[C@@H]1Cc2nn(C)c(-c3ccccc3)c2-c2nc(Nc3ccn(CCN4CCN(CC(C)(C)O)CC4)n3)ncc21` [Compound I-3] as the molecule, how does the inhibition at 1 µM (CHEK1 (CHK1)) read?
Its inhibition at 1 µM is 31%.

And the inhibition at 1 µM (PRKACA (PKA))?
The inhibition at 1 µM was 13%.

And the inhibition at 1 µM (PDK1 Direct)?
Its inhibition at 1 µM is 9%.

With `CC(O)CN1CCN(CCn2ccc(Nc3ncc4c(n3)-c3c(nn(C)c3-c3ccccc3)C[C@H]4C)n2)CC1` (some centres unmarked) [Compound I-7] as the molecule, how does the inhibition at 1 µM (CHEK1 (CHK1)) read?
The inhibition at 1 µM was 38%.

What about the inhibition at 1 µM (PRKACA (PKA)) of the same molecule?
Its inhibition at 1 µM is 16%.

And the inhibition at 1 µM (PDK1 Direct)?
Its inhibition at 1 µM is 3%.

Which results are given for `C[C@@H]1Cc2nn(C)c(-c3ccccc3)c2-c2nc(Nc3ccn(CCN4CCN(CC(=O)OC5CCOCC5)CC4)n3)ncc21` [Compound I-8]?
inhibition at 1 µM (CHEK1 (CHK1)): 17%; inhibition at 1 µM (PRKACA (PKA)): 16%; inhibition at 1 µM (PDK1 Direct): 5%

`C[C@@H]1Cc2nn(C)c(-c3ccccc3)c2-c2nc(Nc3ccn(CCN4CCN(CC5CCCO5)CC4)n3)ncc21` (some centres unmarked) [Compound I-9] was tested. Which inhibition at 1 µM (CHEK1 (CHK1)) did it give?
The inhibition at 1 µM was 26%.

What about the inhibition at 1 µM (PRKACA (PKA)) of the same molecule?
Its inhibition at 1 µM is 17%.

What about the inhibition at 1 µM (PDK1 Direct) of the same molecule?
The inhibition at 1 µM was 6%.

`COCCN1CCN(CCn2ccc(Nc3ncc4c(n3)-c3c(nn(C)c3-c3ccccc3)C[C@H]4C)n2)CC1` [Compound I-11] was tested. Which inhibition at 1 µM (MAPK8 (JNK1)) did it give?
The inhibition at 1 µM was 12%.

And the inhibition at 1 µM (CHEK1 (CHK1))?
Its inhibition at 1 µM is 25%.

What about the inhibition at 1 µM (MAPK9 (JNK2)) of the same molecule?
Its inhibition at 1 µM is 7%.

What about the inhibition at 1 µM (PRKACA (PKA)) of the same molecule?
The inhibition at 1 µM was -3%.

What about the inhibition at 1 µM (PDK1 Direct) of the same molecule?
Its inhibition at 1 µM is 20%.
